# Experimental data taken from the supplement of paper PMC10307832.
# Legend:
# Assay in all cases: relative viability (nuclei count vs DMSO), 5 days (fraction); higher = more cells survive
# MK-8033 + Crizotinib = compound: Cn1cc(-c2cnc3ccc4ccc(CS(=O)(=O)NCc5ccccn5)cc4c(=O)c3c2)cn1 [MK-8033] + C[C@@H](Oc1cc(-c2cnn(C3CCNCC3)c2)cnc1N)c1c(Cl)ccc(F)c1Cl [Crizotinib] (partner 1 µM)
# Procedure, shortened: (§1)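 Medians of duplicate plates are given as relative viability. That measure is the nuclei count in treated wells divided by the count in vehicle wells. Counts were taken on 4× images of lung cancer cell lines in 1536-well plates, 5 days after pin-tool dosing the day after seeding with one drug alone or a fixed anchor-drug dose plus five library-drug doses (not always all listed) in √10 steps.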
# MK-8033 + Alpelisib = compound: Cn1cc(-c2cnc3ccc4ccc(CS(=O)(=O)NCc5ccccn5)cc4c(=O)c3c2)cn1 [MK-8033] + Cc1nc(NC(=O)N2CCC[C@H]2C(N)=O)sc1-c1ccnc(C(C)(C)C(F)(F)F)c1 [Alpelisib] (partner 2 µM)
# Procedure, shortened: as §1
# MK-8033 + Foretinib = compound: Cn1cc(-c2cnc3ccc4ccc(CS(=O)(=O)NCc5ccccn5)cc4c(=O)c3c2)cn1 [MK-8033] + COc1cc2c(Oc3ccc(NC(=O)C4(C(=O)Nc5ccc(F)cc5)CC4)cc3F)ccnc2cc1OCCCN1CCOCC1 [Foretinib] (partner 0.25 µM)
# Procedure, shortened: as §1
# MK-8033 + OSI-027 = compound: Cn1cc(-c2cnc3ccc4ccc(CS(=O)(=O)NCc5ccccn5)cc4c(=O)c3c2)cn1 [MK-8033] + COc1cccc2cc(-c3nc([C@H]4CC[C@H](C(=O)O)CC4)n4ncnc(N)c34)[nH]c12 [OSI-027] (partner 0.5 µM)
# Procedure, shortened: as §1
Cell Line,relative viability (MK-8033 + Crizotinib; first compound 0.02 µM),relative viability (MK-8033 + Crizotinib; first compound 0.06325 µM),relative viability (MK-8033 + Crizotinib; first compound 0.2 µM),relative viability (MK-8033 + Crizotinib; first compound 0.6325 µM),relative viability (MK-8033 + Crizotinib; first compound 2 µM),relative viability (MK-8033 + Alpelisib; first compound 0.02 µM),relative viability (MK-8033 + Alpelisib; first compound 0.06325 µM),relative viability (MK-8033 + Alpelisib; first compound 0.2 µM),relative viability (MK-8033 + Alpelisib; first compound 0.6325 µM),relative viability (MK-8033 + Alpelisib; first compound 2 µM),relative viability (MK-8033 + Foretinib; first compound 0.02 µM),relative viability (MK-8033 + Foretinib; first compound 0.06325 µM),relative viability (MK-8033 + Foretinib; first compound 0.2 µM),relative viability (MK-8033 + Foretinib; first compound 0.6325 µM),relative viability (MK-8033 + Foretinib; first compound 2 µM),relative viability (MK-8033 + OSI-027; first compound 0.02 µM),relative viability (MK-8033 + OSI-027; first compound 0.06325 µM),relative viability (MK-8033 + OSI-027; first compound 0.2 µM),relative viability (MK-8033 + OSI-027; first compound 0.6325 µM),relative viability (MK-8033 + OSI-027; first compound 2 µM)
IA-LM,0.739,0.667,0.948,0.667,0.899,0.787,0.536,0.723,0.736,0.729,0.989,1.03,1.17,1.15,1.12,,,,,
NCI-H522,,,,,,,,,,,,,,,,0.806,0.627,0.661,0.729,0.722
NCI-H1299,0.956,0.925,0.92,0.946,0.971,0.985,1.02,1.07,0.99,1.1,1.09,1.08,1.02,1.13,1.06,,,,,
NCI-H1395,,,,,,1.2,1,1.16,1.13,1.05,0.989,0.855,0.939,0.98,0.994,0.557,0.555,0.601,0.644,0.615
NCI-H1623,,,,,,,,,,,0.904,0.729,0.889,0.812,0.943,0.411,0.409,0.495,0.442,0.477
NCI-H1648,,,,,,,,,,,,,,,,,0.261,0.261,,0.25
NCI-H1650,0.997,0.867,0.996,0.919,0.832,,,,,,1.13,1.04,1.07,1.08,0.951,0.677,0.404,0.568,0.644,0.485
NCI-H1703,0.583,0.576,0.549,0.601,0.715,0.407,0.273,0.354,0.266,0.309,0.316,0.393,0.351,0.32,0.337,,,,,
NCI-H1792,1.02,0.959,0.982,0.828,1.03,0.729,0.59,0.768,0.776,0.693,,,,,,0.655,0.611,0.683,0.628,0.512
NCI-H1793,,,,,,0.608,,0.54,0.603,0.816,0.696,0.515,0.615,0.574,0.784,0.247,0.253,0.233,0.282,0.2
NCI-H2342,,,,,,,,,,,1.04,1.08,0.976,0.947,1.07,0.588,0.64,0.719,0.665,0.632
SW 900,,,,,,,,,,,0.732,0.813,0.665,0.88,0.79,0.597,0.437,0.515,0.448,0.597
